Laboratory results published in patent US10689377B2 (Mirati Therapeutics, Inc., priority 2017, dated 2020).

Target: KRas G12C (Homo sapiens, UniProt P01116, G12C)
Experiment: Cellular inhibition of KRas G12C measured by Phospho-ERK in NCI-H358 cells
Assay type: cell-based
Conditions: pERK(Thr202/Tyr204) normalized with GAPDH, NCI-H358 cells, 3 hours; read-out: IC50
Procedure, shortened: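 Readout is pERK(Thr202/Tyr204) immunofluorescence normalized to GAPDH, expressed as percent of DMSO control and fitted with a 4-parameter curve for IC50. Attached NCI-H358 cells received compound for 3 hours in 0.5% DMSO, followed by fixation and methanol permeabilization.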

Chain of KRas G12C (P01116 1-188 isoform P01116-2 G12C): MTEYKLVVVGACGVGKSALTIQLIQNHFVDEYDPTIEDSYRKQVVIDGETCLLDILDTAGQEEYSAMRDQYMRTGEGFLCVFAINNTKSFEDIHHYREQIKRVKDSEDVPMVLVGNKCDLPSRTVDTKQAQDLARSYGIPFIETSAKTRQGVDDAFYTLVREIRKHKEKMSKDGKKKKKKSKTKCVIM

Row | Compound | IC50 [nM]
1 | C=CC(=O)N1CCN(c2nc(OC[C@@H]3CCC(C)(C)N3C)nc3c2CCN(c2cccc4ccccc24)C3)CC1CC#N (stereo partly drawn) [Example 301, 2-[4-[7-(1-naphthyl)-2-[[(2S)-1,5,5-trimethylpyrrolidin-2-yl]methoxy]-6,8-dihydro-5H-pyrido[3,4-d]pyrimidin-4-yl]-1-prop-2-enoyl-piperazin-2-yl]acetonitrile] | 0.1 to 1000
2 | C=CC(=O)N1CCN(c2nc(OC[C@@H]3CCCN3C)nc3c2CCN(c2cccc4ccc(F)cc24)C3)CC1CC#N (some centres unmarked) [Example 302] | 0.1 to 1000
3 | C=CC(=O)N1CCN(c2nc(OC[C@H]3CCCN3CCO)nc3c2CCN(c2cccc4ccccc24)C3)CC1CC#N (stereo partly drawn) [Example 304, 2-[4-[2-[[(2R)-1-(2-hydroxyethyl)pyrrolidin-2-yl]methoxy]-7-(1-naphthyl)-6,8-dihydro-5H-pyrido[3,4-d]pyrimidin-4-yl]-1-prop-2-enoyl-piperazin-2-yl]acetonitrile] | 0.1 to 1000
4 | C=CC(=O)N1CCN(c2nc(OC[C@@H]3C[C@@H](F)CN3C)nc3c2CCN(c2cccc4ccccc24)C3)C[C@@H]1CC#N [Example 306, 2-((S)-1-acryloyl-4-(2-(((2S,4R)-4-fluoro-1-methylpyrrolidin-2-yl)methoxy)-7-(naphthalen-1-yl)-5,6,7,8-tetrahydropyrido[3,4-d]pyrimidin-4-yl)piperazin-2-yl)acetonitrile] | 0.1 to 1000
5 | C=CC(=O)N1CCN(c2nc(OC[C@@H]3CCCN3C)nc3c2CCN(c2cccc(F)c2OC)C3)CC1CC#N (stereo partly drawn) [Example 308, 2-(1-acryloyl-4-(7-(3-fluoro-2-methoxyphenyl)-2-(((S)-1-methylpyrrolidin-2-yl)methoxy)-5,6,7,8-tetrahydropyrido[3,4-d]pyrimidin-4-yl)piperazin-2-yl)acetonitrile] | 0.1 to 1000
6 | C=CC(=O)N1CCN(c2nc(OC[C@@H]3C[C@@H](O)CN3C)nc3c2CCN(c2ccccc2C(F)(F)F)C3)CC1CC#N (stereo partly drawn) [Example 312, 2-[4-[2-[[(2S,4R)-4-hydroxy-1-methyl-pyrrolidin-2-yl]methoxy]-7-[2-(trifluoromethyl)phenyl]-6,8-dihydro-5H-pyrido[3,4-d]pyrimidin-4-yl]-1-prop-2-enoyl-piperazin-2-yl]acetonitrile] | 0.1 to 1000
7 | C=CC(=O)N1CCN(c2nc(OC[C@@H]3CCCN3C)nc3c2CCN(c2cc(OC)cc4ccccc24)C3)C[C@@H]1CC#N [Example 314, 2-[(2S)-4-[7-(3-methoxy-1-naphthyl)-2-[[(2S)-1-methylpyrrolidin-2-yl]methoxy]-6,8-dihydro-5H-pyrido[3,4-d]pyrimidin-4-yl]-1-prop-2-enoyl-piperazin-2-yl]acetonitrile] | 0.1 to 1000
8 | C=CC(=O)N1CCN(c2nc(OC[C@@H]3C[C@@H](O)CN3C)nc3c2CCN(c2cccc4ccccc24)C3)C[C@@H]1CC#N [Example 315, 2-[(2S)-4-[2-[[(2S,4R)-4-hydroxy-1-methyl-pyrrolidin-2-yl]methoxy]-7-(1-naphthyl)-6,8-dihydro-5H-pyrido[3,4-d]pyrimidin-4-yl]-1-prop-2-enoyl-piperazin-2-yl]acetonitrile] | 0.1 to 1000
9 | C=CC(=O)N1CCN(c2nc(OC[C@@H]3CCCN3C)nc3c2CCN(c2ccc(F)c4ccccc24)C3)C[C@@H]1CC#N [Example 316, 2-((S)-1-acryloyl-4-(7-(4-fluoronaphthalen-1-yl)-2-(((S)-1-methylpyrrolidin-2-yl)methoxy)-5,6,7,8-tetrahydropyrido[3,4-d]pyrimidin-4-yl)piperazin-2-yl)acetonitrile] | 0.1 to 1000
10 | C=CC(=O)N1CCN(c2nc(OC[C@@H]3CCCN3C)nc3c2CCN(c2cc(O)cc4ccccc24)C3)C[C@@H]1CC#N [Example 317] | 0.1 to 1000
11 | C=CC(=O)N1CCN(c2nc(OC[C@H]3CCCN3C)nc3c2CCN(c2cccc(Cl)c2C(F)(F)F)C3)C[C@@H]1CC#N [Example 319, 2-((S)-1-acryloyl-4-(7-(3-chloro-2-(trifluoromethyl)phenyl)-2-(((R)-1-methylpyrrolidin-2-yl)methoxy)-5,6,7,8-tetrahydropyrido[3,4-d]pyrimidin-4-yl)piperazin-2-yl)acetonitrile] | 0.1 to 1000
12 | C=CC(=O)N1CCN(c2nc(OC[C@@H]3CCCN3C)nc3c2CCN(c2c(O)cccc2F)C3)[C@@H](C)C1 [Example 321, 1-[(3S)-4-[7-(2-fluoro-6-hydroxy-phenyl)-2-[[(2S)-1-methylpyrrolidin-2-yl]methoxy]-6,8-dihydro-5H-pyrido[3,4-d]pyrimidin-4-yl]-3-methyl-piperazin-1-yl]prop-2-en-1-one] | > 1000
13 | C=CC(=O)N1CCN(c2nc(OC[C@@H]3CCCN3C)nc3c2CCN(c2cccc4ccc(C)cc24)C3)C[C@@H]1CC#N [Example 326, 2-((S)-1-acryloyl-4-(7-(7-methylnaphthalen-1-yl)-2-(((S)-1-methylpyrrolidin-2-yl)methoxy)-5,6,7,8-tetrahydropyrido[3,4-d]pyrimidin-4-yl)piperazin-2-yl)acetonitrile] | 0.1 to 1000

The remaining lines, values ahead:

Row | IC50 [nM] | Compound
14 | 0.1 to 1000 | C=CC(=O)N1CCN(c2nc(OCCN(CC)CC)nc3c2CCN(c2ccccc2C(F)(F)F)C3)CC1CC#N (centres unmarked) [Example 300, 2-[4-[2-[2-(diethylamino)ethoxy]-7-[2-(trifluoromethyl)phenyl]-6,8-dihydro-5H-pyrido[3,4-d]pyrimidin-4-yl]-1-prop-2-enoyl-piperazin-2-yl]acetonitrile]
15 | 0.1 to 1000 | C=CC(=O)N1CCN(c2nc(OCCN3CCCCC3)nc3c2CCN(c2cccc4ccccc24)C3)CC1CC#N (centres unmarked) [Example 303, 2-[4-[7-(1-naphthyl)-2-[2-(1-piperidyl)ethoxy]-6,8-dihydro-5H-pyrido[3,4-d]pyrimidin-4-yl]-1-prop-2-enoyl-piperazin-2-yl]acetonitrile]
16 | > 1000 | C=CC(=O)N1CCN(c2nc(OC[C@@H]3CCCN3C)nc3c2CCN(c2cnccc2C#N)C3)C[C@@H]1CC#N [Example 305, 3-(4-((S)-4-acryloyl-3-(cyanomethyl)piperazin-1-yl)-2-(((S)-1-methylpyrrolidin-2-yl)methoxy)-5,6-dihydropyrido[3,4-d]pyrimidin-7(8H)-yl)isonicotinonitrile]
17 | > 1000 | C=CC(=O)N1CCN(c2nc(OC[C@@H]3CCCN3C)nc3c2CCN(c2cccc(OC)c2F)C3)CC1CC#N (stereo partly drawn) [Example 307, 2-[4-[7-(2-fluoro-3-methoxy-phenyl)-2-[[(2S)-1-methylpyrrolidin-2-yl]methoxy]-6,8-dihydro-5H-pyrido[3,4-d]pyrimidin-4-yl]-1-prop-2-enoyl-piperazin-2-yl]acetonitrile]
18 | 0.1 to 1000 | C=CC(=O)N1CCN(c2nc(OC[C@@H]3CCCN3C)nc3c2CCN(c2cccc4cccc(C)c24)C3)CC1CC#N (stereo partly drawn) [Example 309, 2-(1-acryloyl-4-(7-(8-methylnaphthalen-1-yl)-2-(((S)-1-methylpyrrolidin-2-yl)methoxy)-5,6,7,8-tetrahydropyrido[3,4-d]pyrimidin-4-yl)piperazin-2-yl)acetonitrile]
19 | 0.1 to 1000 | C=CC(=O)N1CCN(c2nc(OC[C@@H]3CCCN3C)nc3c2CCN(c2c(F)ccc4ccccc24)C3)CC1CC#N (stereo partly drawn) [Example 311, 2-(1-acryloyl-4-(7-(2-fluoronaphthalen-1-yl)-2-(((S)-1-methylpyrrolidin-2-yl)methoxy)-5,6,7,8-tetrahydropyrido[3,4-d]pyrimidin-4-yl)piperazin-2-yl)acetonitrile]
20 | 0.1 to 1000 | C=CC(=O)N1CCN(c2nc(OC[C@@H]3CCN(C)C3)nc3c2CCN(c2c(C(F)(F)F)ccc4[nH]ncc24)C3)CC1CC#N (stereo partly drawn) [Example 313, 2-[4-[2-[[(3R)-1-methylpyrrolidin-3-yl]methoxy]-7-[5-(trifluoromethyl)-1H-indazol-4-yl]-6,8-dihydro-5H-pyrido[3,4-d]pyrimidin-4-yl]-1-prop-2-enoyl-piperazin-2-yl]acetonitrile]
21 | 0.1 to 1000 | C=CC(=O)N1CCN(c2nc(OC[C@H]3CCCN3C)nc3c2CCN(c2ccc(F)c4ccccc24)C3)C[C@@H]1CC#N [Example 318, 2-[(2S)-4-[7-(4-fluoro-1-naphthyl)-2-[[(2R)-1-methylpyrrolidin-2-yl]methoxy]-6,8-dihydro-5H-pyrido[3,4-d]pyrimidin-4-yl]-1-prop-2-enoyl-piperazin-2-yl]acetonitrile]
22 | 0.1 to 1000 | C=CC(=O)N1CCN(c2nc(OC[C@@H]3CCCN3C(C)C)nc3c2CCN(c2cccc4ccccc24)C3)C[C@@H]1CC#N [Example 320, 2-[(2S)-4-[2-[[(2S)-1-isopropylpyrrolidin-2-yl]methoxy]-7-(1-naphthyl)-6,8-dihydro-5H-pyrido[3,4-d]pyrimidin-4-yl]-1-prop-2-enoyl-piperazin-2-yl]acetonitrile]
23 | 0.1 to 1000 | C=CC(=O)N1CCN(c2nc(OC[C@@H]3CCCN3CC)nc3c2CCN(c2ccc(F)c4ccccc24)C3)CC1CC#N (stereo partly drawn) [Example 322, 2-(1-acryloyl-4-(2-(((S)-1-ethylpyrrolidin-2-yl)methoxy)-7-(4-fluoronaphthalen-1-yl)-5,6,7,8-tetrahydropyrido[3,4-d]pyrimidin-4-yl)piperazin-2-yl)acetonitrile]
24 | 0.1 to 1000 | C=CC(=O)N1CCN(c2nc(OC[C@H]3C[C@H](O)CN3C)nc3c2CCN(c2cccc4ccccc24)C3)C[C@@H]1CC#N [Example 323, 2-[(2S)-4-[2-[[(2R,4S)-4-hydroxy-1-methyl-pyrrolidin-2-yl]methoxy]-7-(1-naphthyl)-6,8-dihydro-5H-pyrido[3,4-d]pyrimidin-4-yl]-1-prop-2-enoyl-piperazin-2-yl]acetonitrile]
25 | 0.1 to 1000 | C=CC(=O)N1CCN(c2nc(OC[C@@H]3CCCN3C)nc3c2CCN(c2cccc(OC)c2C)C3)C[C@@H]1CC#N [Example 324, 2-[(2S)-4-[7-(3-methoxy-2-methyl-phenyl)-2-[[(2S)-1-methylpyrrolidin-2-yl]methoxy]-6,8-dihydro-5H-pyrido[3,4-d]pyrimidin-4-yl]-1-prop-2-enoyl-piperazin-2-yl]acetonitrile]
26 | > 1000 | C=CC(=O)N1CCN(c2nc(OC[C@@H]3CCCN3C)nc3c2CCN(c2ccccc2C#N)C3)C[C@@H]1CC#N [Example 325, 2-[4-[(3S)-3-(cyanomethyl)-4-prop-2-enoyl-piperazin-1-yl]-2-[[(2S)-1-methylpyrrolidin-2-yl]methoxy]-6,8-dihydro-5H-pyrido[3,4-d]pyrimidin-7-yl]benzonitrile]
